Results taken from patent US20050258288A1, “High pressure media milling system and process of forming particles” (E. I. du Pont de Nemours and Company, priority 2003, published 2005).

Assays:
[1] = Particle size of milled product by Malvern Mastersizer 2000 (laser diffraction); type: physicochemical; conditions: for X10 / X50 / X90 (90% cumulative undersize): Example 4: piroxicam milled in supercritical CO2, 120 min, by collection method
[2] = Surface area measurements (BET) of milled product; type: physicochemical; conditions: Example 4: piroxicam milled in supercritical CO2; for BET: Table 2
Source text: The yield of the run with the depressurization was 10.7 grams, while in the case of the nozzle dispersion only 2.4 grams were recovered.

[3] = Example 1: lactose + oleic acid milled in supercritical CO2, nylon media, 60 min
[4] = Example 3: lactose mono hydrate + Span85 milled in liquified HFC 134a, 1000 psi, 60 min
[5] = Example 2: ibuprofen + sodium lauryl sulfate milled in supercritical CO2, ceramic media, 60 min

CN1C(C(=O)Nc2ccccn2)=C(O)c2ccccc2S1(=O)=O [Test 1, piroxicam]
X10 [1]: 3.00 micron | X50 [1]: 5.70 micron | X90 (90% cumulative undersize) [1]: 10.9 micron | BET [2]: 11.8 sq. m/g | surface area (BET), specific surface area ([2]; listed as product collected in the filter before depressurization): 11.8 sq meter per gram

OC[C@H]1O[C@@H](O[C@H]2[C@H](O)[C@@H](O)C(O)O[C@@H]2CO)[C@H](O)[C@@H](O)[C@H]1O (stereo partly shown) [lactose]
10% cumulative undersize [1, 3]: 3.0 micron | 90% cumulative undersize [1, 3]: 796 micron | median particle size ([1]; Example 1: lactose + oleic acid milled in supercritical CO2, nylon media, 60 min, collected in high pressure filter): 75.889 microns | 10% cumulative undersize [1, 4]: 1.059 micron | 90% cumulative undersize [1, 4]: 553 micron | median particle size [1, 4]: 4.4 microns

CC(C)Cc1ccc(C(C)C(=O)O)cc1 (stereo not shown) [ibuprofen]
10% cumulative undersize [1, 5]: 1.097 micron | median size [1, 5]: 2.6 micron | 90% cumulative undersize ([1]; Example 2: ibuprofen + sodium lauryl sulfate milled in supercritical CO2, due to agglomeration): 219 microns

CN1C(C(=O)Nc2ccccn2)=C(O)c2ccccc2S1(=O)=O [Test 2, piroxicam]
X10 [1]: 0.08 micron | X50 [1]: 0.26 micron | X90 (90% cumulative undersize) [1]: 2.04 micron | BET [2]: 9.4 sq. m/g | surface area (BET), specific surface area ([2]; listed as nozzle dispersed material): 9.7 sq meter per gram
